Laboratory results from ChEMBL document CHEMBL5579901, “Discovery of Novel [1,2,4]Triazolo[1,5-a]pyrimidine Derivatives as Novel Potent S-Phase Kinase-Associated Protein 2 (SKP2) Inhibitors for the Treatment of Cancer” (J Med Chem, 2024).
pIC50: −log10 of the molar value.

Legend:
[1] = target: T1, Cyclin-dependent kinases regulatory subunit 1/S-phase kinase-associated protein 2 (Homo sapiens) (UniProt P61024+Q13309); assay: Inhibition of GST-tagged SKP2 (unknown origin) binding to His6-tagged CKS1 (unknown origin) at 50 uM preincubated with SKP2 for 10 mins followed by CKS1 addition for 20 mins and measured after by HTRF method relative to control; format: protein assay; conditions: time 30.0 min
T1 sequence (P61024 2-79 limits assumed): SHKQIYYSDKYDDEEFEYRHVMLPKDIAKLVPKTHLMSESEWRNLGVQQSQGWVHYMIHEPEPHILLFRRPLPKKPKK
T1 sequence (Q13309 whole entry partner): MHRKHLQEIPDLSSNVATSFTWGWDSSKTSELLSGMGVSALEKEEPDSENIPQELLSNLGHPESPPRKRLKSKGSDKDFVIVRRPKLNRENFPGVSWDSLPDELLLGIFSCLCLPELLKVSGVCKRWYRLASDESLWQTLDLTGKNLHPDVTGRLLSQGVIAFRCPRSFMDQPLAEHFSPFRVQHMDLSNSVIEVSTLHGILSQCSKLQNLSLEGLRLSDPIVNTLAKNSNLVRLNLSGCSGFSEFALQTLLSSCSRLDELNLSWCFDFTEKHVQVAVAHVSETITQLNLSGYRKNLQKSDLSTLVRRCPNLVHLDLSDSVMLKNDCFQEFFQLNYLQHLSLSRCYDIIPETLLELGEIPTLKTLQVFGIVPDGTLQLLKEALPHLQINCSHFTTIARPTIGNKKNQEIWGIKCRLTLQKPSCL

[2] = target: T2, Cyclin-dependent kinases regulatory subunit 1/S-phase kinase-associated protein 2 (Homo sapiens, UniProt Q13309); assay: Inhibition of GST-tagged SKP2 (unknown origin) binding to His6-tagged CKS1 (unknown origin) preincubated with SKP2 for 10 mins followed by CKS1 addition for 20 mins and measured after by HTRF method; format: protein assay
T2 sequence (P61024 whole entry): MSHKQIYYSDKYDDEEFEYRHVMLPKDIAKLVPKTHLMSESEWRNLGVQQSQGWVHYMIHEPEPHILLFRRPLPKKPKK
T2 sequence (Q13309 whole entry): as the sequence (Q13309 whole entry partner) above

[3] = target: T1, Cyclin-dependent kinases regulatory subunit 1/S-phase kinase-associated protein 2 (Homo sapiens); assay: Inhibition of GST-tagged SKP2 (unknown origin) to His6-tagged CKS1 (unknown origin) protein protein interaction at 50 umol/L by HTRF method relative to control; format: protein assay; conditions: dose 50.0 µmol/L
[4] = target: T2, Cyclin-dependent kinases regulatory subunit 1/S-phase kinase-associated protein 2; assay: Inhibition of GST-tagged SKP2 (unknown origin) binding to His6-tagged CKS1 (unknown origin) incubated for 1 hr by AlphaScreen assay; format: protein assay
A549 = assay: Antiproliferative activity against human A549 cells incubated for 48 hrs by MTT assay; format: functional, cell-based; conditions: A549, 48 h
MGC-803 = assay: Inhibition of cell proliferation in human MGC-803 cells incubated for 72 hrs by MTT assay; format: functional, cell-based; conditions: MGC-803, 72 h
PC-3 = assay: Inhibition of cell proliferation in human PC-3 cells incubated for 72 hrs by MTT assay; format: functional, cell-based; conditions: PC-3, 72 h

Compound	inhibition [1] [%]	pIC50 [2]	also measured
Cc1cc(-c2cccc(C(=O)N3CCN(C)CC3)c2)n2nc(SCc3ccc(Br)cc3)nc2n1	23.4	< 4.00	
COC(=O)c1ccc(Nc2cc(C)nc3nc(SCc4ccc(Br)cc4)nn23)cc1	12.4	< 4.00	
COc1cc(OC)c(-c2cc(C)nc3nc(SCc4cccc5ccccc45)nn23)c(OC)c1	17.4	< 4.00	
COc1cc(OC)c(-c2cc(C)nc3nc(SCc4ccncc4)nn23)c(OC)c1	10	< 4.00	
COc1ccc(N2C(=O)c3ccccc3C2Cc2cc(-c3c(OC)cc(O)cc3OC)n3ncnc3n2)cc1 (configuration not stated)			inhibition [3]: 54%
COc1cc(OC)c(-c2cc(C)nc3nc(SCc4ccc(C)cc4)nn23)c(OC)c1	11.5	< 4.00	
Cc1cc(Br)n2nc(SCc3ccc(Br)cc3)nc2n1	47	4.17	
O=C(OCC12CC3CC(CC(C3)C1)C2)c1ccc(NCc2cc(O)ccc2O)cc1			pIC50 [4]: 4.44
COc1cc(OC)c(-c2cc(C)nc3nc(SCCCc4ccccc4)nn23)c(OC)c1	20.3	< 4.00	
Cc1cc(-c2ccc(C(=O)N3CCN(C)CC3)cc2)n2nc(SCc3ccc(Br)cc3)nc2n1	14.6	< 4.00	
CCSc1nc2nc(C)cc(-c3c(OC)cc(OC)cc3OC)n2n1	3.73	< 4.00	
COc1cc(OC)c(-c2cc(C)nc3nc(SCC4CCCCC4)nn23)c(OC)c1	60	4.76	
COc1cc(C2=NC3=NC(C)=C(C(C)=O)C(c4ccc([N+](=O)[O-])cc4)N3N2)cc(OC)c1OC (configuration not stated)			pIC50 (A549): 5.99
C=CCSc1nc2nc(C)cc(-c3c(OC)cc(OC)cc3OC)n2n1	2.51	< 4.00	
COC(=O)c1cccc(CSc2nc3nc(C)cc(-c4c(OC)cc(OC)cc4OC)n3n2)c1	10.2	< 4.00	
COc1cc(OC)c(-c2cc(C)nc3nc(SCc4cccc(Cl)c4)nn23)c(OC)c1	15.9	< 4.00	
CCCSc1nc2nc(C)cc(-c3c(OC)cc(OC)cc3OC)n2n1	24.5	< 4.00	
COc1cc(OC)c(-c2cc(C)nc3nc(SCc4cccc(Br)c4)nn23)c(OC)c1	42.5	4.21	
COc1cc(OC)c(-c2cc(C)nc3nc(SCc4ccccc4Br)nn23)c(OC)c1	43	4.18	
COc1cc(OC)c(-c2cc(C)nc3nc(SCc4cnc(Cl)s4)nn23)c(OC)c1	31.5	4.14	
COc1cc(OC)c(-c2cc(C)nc3nc(SCc4ccc(I)cc4)nn23)c(OC)c1	41.7		
COc1cc(OC)c(-c2cc(C)nc3nc(SCc4ccc(Br)cc4)nn23)c(OC)c1	69.6	4.93	
COc1ccccc1-c1cc(C)nc2nc(SCc3ccc(Br)cc3)nn12	27.2	< 4.00	

Compound	inhibition [1] [%]	pIC50 [2]	also measured
COc1cc(OC)c(-c2cc(C)nc3nc(SCc4ccc(F)cc4)nn23)c(OC)c1	24	4.01	
COc1cc(OC)c(-c2cc(C)nc3nc(SCc4ccc(C(F)(F)F)cc4)nn23)c(OC)c1	27.1	4.03	
COc1cc(OC)c(-c2cc(C)nc3nc(SCc4cccc(Cl)c4Cl)nn23)c(OC)c1	7.29	< 4.00	
COc1ccc(CSc2nc3nc(C)cc(-c4c(OC)cc(OC)cc4OC)n3n2)cc1	11.5	< 4.00	
COc1cc(OC)c(-c2cc(C)nc3nc(SCc4ccc(Cl)cc4)nn23)c(OC)c1	9.13	< 4.00	
Cc1cc(-c2ccc(C(=O)O)cc2)n2nc(SCc3ccc(Br)cc3)nc2n1	20.1	< 4.00	
COc1cc(OC)c(-c2cc(C)nc3nc(SCC4CCOCC4)nn23)c(OC)c1	16.3	< 4.30	
COc1cc(-c2cc(C)nc3nc(SCc4ccc(Br)cc4)nn23)cc(OC)c1OC	58.8	4.51	
COc1cc(OC)c(-c2cc(C)nc3nc(SCC4CCCC4)nn23)c(OC)c1	28	4.21	
COC(=O)c1ccc(CCc2cc(O)ccc2O)cc1			pIC50 [4]: 4.44
COc1ccc(-c2cc(C)nc3nc(SCc4ccc(Br)cc4)nn23)cc1	34.6	4.14	
COc1cccc(-c2cc(C)nc3nc(SCc4ccc(Br)cc4)nn23)c1	58.7	4.39	
C#CCSc1nc2nc(C)cc(-c3c(OC)cc(OC)cc3OC)n2n1	5.84	< 4.00	
O=c1[nH]cc(F)c(=O)[nH]1 [FLUOROURACIL]			pIC50 (MGC-803): 4.36; pIC50 (PC-3): 4.99
COc1cc(OC)c(-c2cc(C)nc3nc(SCc4ccccc4)nn23)c(OC)c1	60	4.83	
Cc1cc(-c2ccc(-c3ccccc3)cc2)n2nc(SCc3ccc(Br)cc3)nc2n1	66.2	4.98	
COC(=O)c1cccc(Nc2cc(C)nc3nc(SCc4ccc(Br)cc4)nn23)c1	12.4	< 4.00	
COc1cc(OC)c(-c2cc(C)nc3nc(SCC4CCC4)nn23)c(OC)c1	20.2	4.08	
COc1cccc(OC)c1-c1cc(C)nc2nc(SCc3ccc(Br)cc3)nn12	37	4.12	
Cc1cc(-c2ccccc2)n2nc(SCc3ccc(Br)cc3)nc2n1	55.3	4.35	
Cc1cc(Cl)n2nc(SCc3ccc(Br)cc3)nc2n1	22	4.12	
Cc1cc(-c2cccc(C(=O)O)c2)n2nc(SCc3ccc(Br)cc3)nc2n1	17.9	< 4.00	
Cc1cc(-c2ccc3c(c2)OCCO3)n2nc(SCc3ccc(Br)cc3)nc2n1	37.4	4.15	
